One data set concerns IL-6. The experiment in a line: IL-6 test procedure (IL-6 ELISA of media) in Ad5-wt-ERα infected HAECT-1 cells. In kind it is cell-based, human. The settings on record: Homo sapiens, HAECT1, IL-1β; for Emax: read-out: Interleukin-6 Efficacy (%); for IC50: read-out: Interleukin-6 IC50. Here is the method:
After four hours, cells were washed with EBM-BSA and incubated overnight in the same medium. Following overnight incubation, cells were washed with EBM-BSA and infected for 2 hours with 6 mL of a 1:10 dilution of Ad5-3x(NFκB).Luc virus (Adenovirus luciferase expression vector driven by 3 repeats of the MHC NFκb site 5′ to the thymidine kinase promoter) in EBM-BSA. After two hours, cells were washed and incubated at 34° C. for 1 hour. […] Control (no ER infection) cells were processed as above without Ad5-wt-hERα virus infection.
ERα infected HAECT-1 cells or control cells were thawed, diluted 42× in warm EBM-BSA, plated into 96-well plates at 0.1 mL/well and incubated for 4 hours at 34° C. Test compounds were added to the cells as 2× stocks in EBM-BSA containing 2 ng/mL IL-1β (R&D Systems) and the 96-well plates were returned to the incubator (34° C.). After 15-20 hours, 100 μL aliquots of media were removed from the cells and assayed for IL-6 content using a BioSource human IL-6 ELISA Kit. Cells were subsequently washed with 300 μL of Dulbecco's phosphate buffered saline and lysed in 50 μL of Cell Culture Lysis Reagent (Promega). Luciferase was determined on a Wallac Victor^2 Luminometer (Gaithersburg, Md.) using 10 μL of lysate and mixing with 100 μL of Promega Luciferase Assay reagent. Creatine kinase was determined from the rate of increase in A340 following addition of 100 μL of CK assay reagent (Sigma, cat. No 47-10) to the remainder of the cell lysate.
For IC50 and EC50 calculations, mean IL-6, luciferase or CK values versus log10 of the compound concentration were fitted to a four parameter logistic equation. The IC50/EC50 value, ‘Hill slope’, upper and lower limits of the curve were iteratively estimated.
A general note: In an ELISA, binding on a coated surface is turned into a signal by an enzyme label.

For the next data set, the system named is creatine kinase. In words: Creatine kinase (CK) test procedure in Ad5-wt-ERα infected HAECT-1 cells. In kind it is cell-based, human. Particulars: Homo sapiens, HAECT1, Ad5-wt-ERα infected HAECT-1 cells; for EC50: read-out: Creatin Kinase EC50.
A further data set deals with ER/NF-κB. The experiment in a line: ER/NF-κB luciferase reporter in Ad5-wt-ERα infected HAECT-1 cells. In kind it is cell-based, human. The settings on record: Homo sapiens, HAECT1, IL-1β; for Emax: read-out: ER/NFκB Efficacy (%)*; for IC50: read-out: ER/NFκB IC50.
[1] abbreviates: read-out: Creatin Kinase Efficacy (%).

For the molecule `C[C@H]1c2cc(F)ccc2-c2ccccc2N1S(=O)(=O)c1ccc(O)cc1` [Example 33, 4-{[(S)-8-Fluoro-6-methylphenanthridin-5(6H)-yl]sulfonyl}phenol], the melting point worked out at 193 °C. For the same molecule, in the data set with IL-6, the Emax was 108% and the IC50 was 0.0234 µM. For the same molecule, in the data set on creatine kinase, the EC50 was determined as 0.091 µM. Moreover, the Emax in the data set with creatine kinase (setting [1]) is 21%. In the data set on ER/NF-κB, the Emax was determined as 99% and the IC50 came out at 0.033 µM.

`C[C@@H]1c2cc(F)ccc2-c2ccccc2N1S(=O)(=O)c1ccc(O)cc1` [Example 34, 4-{[(R)-8-Fluoro-6-methylphenanthridin-5(6H)-yl]sulfonyl}phenol] returned a melting point of 193 °C. Moreover, the Emax with IL-6 worked out at 35%. Moreover, the Emax at 10 µM in the data set on creatine kinase (@10 μM, read-out: Creatin Kinase Efficacy (%)) was < 35%. Also, in the data set on ER/NF-κB, the Emax was found to be 89% and the IC50 was found to be 2.85 µM.

In turn, `C[C@H]1c2ccccc2-c2ccc(F)cc2N1S(=O)(=O)c1ccc(O)cc1O` [Example 111, 4-{[(6S)-3-Fluoro-6-methylphenanthridin-5(6H)-yl]sulfonyl}benzene-1,3-diol] returned a melting point of 151 to 153 °C. Also, in the data set with IL-6, the Emax turned out to be 114% and the IC50 was found to be 0.022 µM. Besides, the EC50 with creatine kinase amounted to 0.102 µM. Also, in the data set on creatine kinase (setting [1]), the Emax amounted to 33%.

By melting point is commonly meant the temperature, or range, at which the solid turns liquid. A word on the EC50: it is the concentration that produces a half-maximal response.

These data come from US6894061B2, “Substituted dihydrophenanthridinesulfonamides” (Wyeth, priority 2002, dated 2005).
